How the values were obtained:
B16 tumors [1] = assay: Example 3: topical PEP005 with DC+IL-2 and M720/B16, larger primary B16 tumors; assay type: in vivo, C57BL/6 mice; details: topical dose printed 15 μg/ml, tumors 26-30 mm^2
Source text: To determine whether PEP005 treatment could synergize with (i) vaccine-induced anti-cancer CD4 T-cells/antibodies and/or (ii) vaccine-induced anti-cancer CD8^+ T-cells, topical PEP005 treatment was combined with vaccination using (i) B16 lysate emulsified in Montanide ISA 720 adjuvant (M720/B16) and (ii) DC2.4 cells sensitized with TRP-2 peptide, SVYDFFVWL [SEQ ID NO:1] and activated with LPS (DC). The latter group also received IL-2 to maintain the vaccine induced T-cells. […] This experiment sought to determine whether improvements in B16 cure rate could be achieved when sub-optimal topical PEP005 treatment was combined with other immune-based therapies. This experiment differed from that described in Example 2 in that treatment was initiated when tumors were slightly larger and the M720/B16 vaccine was given d0 not d−5, and the dose of B16 cells in that vaccine was increased 10-fold.
B16 tumors were injected 2×10^6 s.c. into C57BL/6 mice on d−3 and on dO when the tumors had reached an average size of 26-30 mm^2, the groups of animal received the following treatments. […]
PEP005+DCAL-2: PEP005 (as above) plus DC2.4 cells which were (i) sensitized with TRP-2 peptide, SVYDFFVWL [SEQ ID NO:1] […]

B16 tumors [2] = assay: Example 4: i.t. PEP005 on RHS primary B16 tumor with or without DC+IL-2, growth of LHS secondary tumor; assay type: in vivo, C57BL/6 mice
Source text: It has previously been established that PEP005-mediated curing of primary tumors can lead to the reduction secondary tumors in a B16-OVA lung metastasis and a s.c. Lewis lung-OVA model. These studies were extended (i) using a model where the model antigen ovalbumin is absent, (ii) using a system where both primary and secondary tumors are established before treatment initiation and (iii) using DC therapy combined with PEP005-mediated curing of primaries, to determine whether the two treatments can improve the anti-cancer effect on the secondary tumors.
[…], three groups of C57BL/6 mice were inoculated with 1×10^5 B16 s.c. on the right hand side of the back (RHS) and 2×10^4 s.c. on the left hand side of the back (LHS). A fourth group (Group 4) received only 2×10^4 s.c. on the left hand side of the back (LHS). On d0. the groups were given the following treatments:
PEP005 RHS: The larger RHS tumors were treated intra-tumorally with 25 μg PEP005 in 50 μl of 5% w/v DMSO in RPMI 1640 supplemented with HEPES 10 mM.
PEP005 RHS+DC+IL-2: The large RHS tumors were treated as for Group 1 plus the animals received on d0 DC2.4 cells (i) activated with LPS (for 3 hr incubation at 37° C. using 1 μg/ml E. coli 055:B5, Sigma), (ii) sensitized with TRP-2 peptide, SVYDFFVWL [SEQ ID NO:1] (30 μg/ml 2 hr, 37° C.), (iii) irradiated (5000 rads), washed and then injected i.v. (4×10^6/mouse iv) on d0. The animals also received rhIL-2 at 5×10^4 IU given twice daily per mouse from d0 to d4 i.p.
CONT TREAT RHS: Mock treatment group; the larger RHS tumors were treated intra-tumorally with 50 μl of 5% w/v DMSO in RPMI1640 supplemented with HEPES 10 mM.
NO RHS: This group had no RHS tumor and received no treatment.

C/C=C(/C)C(=O)O[C@H]1C(C)=C[C@]23C(=O)[C@@H](C=C(CO)[C@@H](O)[C@]12O)[C@H]1[C@@H](C[C@H]3C)C1(C)C [PEP005, ingenol-3-angelate]
cure of B16 tumors by topical PEP005 alone (B16 tumors [1]): did not cure most B16 tumors
tolerability of i.t. treatment (B16 tumors [2]; 25 μg PEP005 in 50 μl of 5% w/v DMSO in RPMI 1640, i.t.): not well tolerated
RHS (primary) tumors successfully cured (B16 tumors [2]; i.t. 25 μg PEP005 on d0): 5/6
mice dying shortly after i.t. treatment (B16 tumors [2]; in each of Group 1 and 2 (n=7 each), PEP005 using DMSO): one
survival (deaths due to growth of LHS tumor) vs NO RHS group (B16 tumors [2]; mouse, in vivo): behaved essentially identically
growth of LHS (secondary) tumor d5 to d11 vs NO RHS (B16 tumors [2]; p=0.042): slower

Source: patent US8106092B2, “Treatment of solid cancers” (priority 2004, dated 2012)
